Assay results taken from ChEMBL document CHEMBL5726857, “Bacterial topoisomerase I inhibitors with antibacterial activity” (2019).

What was measured:
[1] = DNA Gyrase Supercoiling Inhibition Assay: DNA gyrase supercoiling assays were carried out by mixing the compounds and the enzyme in a similar manner as above (EcTopI relaxation inhibition assay) but in a gyrase assay buffer (35 mM Tris-HCl, 24 mM KCl, 4 mM MgCl2, 2 mM DTT, 1.75 mM ATP, 5 mM spermidine, 0.1 mg/mL BSA, 6.5% glycerol at pH 7.5), followed by the addition of 300 ng of relaxed covalently closed circular DNA (New England Biolabs, Ipswich, Mass., USA) to a final reaction volume of 20 μL. The samples were incubated at 37° C. for 30 minutes before being terminated by the addition of a buffer containing 5% SDS, 0.25% bromophenol blue, and 25% glycerol. The reactions were then analyzed by agarose gel electrophoresis.; design: species or system Escherichia coli
[2] = E. coli Topoisomerase I Relaxation Activity Inhibition Assay: The relaxation activity of E. coli topoisomerase I was assayed in a buffer containing 10 mM Tris-HCl, pH 8.0, 50 mM NaCl, 0.1 mg/mL gelatin, and 0.5 mM MgCl2. Half microliter from the appropriate stock solutions of compounds dissolved in the solvent (DMSO) or the solvent alone (control) was mixed with 9.5 μL of the reaction buffer containing 10 ng of enzyme before the addition of 10 μL of reaction buffer containing 200 ng of supercoiled pBAD/Thio plasmid DNA purified by cesium chloride gradient as substrate. Following incubation at 37° C. for 30 min, the reactions were terminated by the addition of 4 μL of a stop buffer (50% glycerol, 50 mM EDTA, and 0.5% (v/v) bromophenol blue), and analyzed by agarose gel electrophoresis. The gels were stained in ethidium bromide and photographed under UV light.

Molecule CN1CCN(c2c(F)cc3c(=O)c(C(=O)O)cn4c3c2Oc2cc(N)ccc2-4)CC1 has an IC50 [1] of 23.4 µM.
Nc1ccc2c(c1)Oc1c(N3CCNCC3)c(F)cc3c(=O)c(C(=O)O)cn-2c13 gave an IC50 [1] of 11.7 µM.
In the case of Nc1ccc2c(c1)Oc1c(N3CCCCC3)c(F)cc3c(=O)c(C(=O)O)cn-2c13, the IC50 [2] is reported as 3.9 µM.
With CCCCCNc1c(F)cc2c(=O)c(C(=O)O)cn3c2c1Oc1cc(N)ccc1-3 the IC50 [2] was 15.6 µM.
